The nature of experiment [1]: Inhibition of asexual blood stage of Plasmodium falciparum 3D7 PKA assessed as inhibition of parasite proliferation after 72 hrs by Malstat assay.
Experiment [2] can be described thus: Inhibition of asexual blood stage of chloroquine-resistant Plasmodium falciparum W2mef PKA assessed as inhibition of parasite proliferation after 72 hrs by Malstat assay.

Molecules are shown by their SMILES.

In general, IC50 refers to the concentration that gives 50% inhibition. For the compound `Cc1nc(NCC(C)C)c2ccccc2c1C#N`, the IC50 in experiment [1] is above 50 µM; in experiment [2], 28 µM.

As to `CCCNc1nc(C)c(C#N)c2ccccc12`, the IC50 in experiment [1] and in experiment [2] was above 50 µM throughout. As for `CCCCNc1nc(C)c(C#N)c2ccccc12`, the half-maximal inhibitory concentration (IC50) in experiment [1] worked out at 34 µM; in experiment [2], 33 µM. `CCNc1nc(C)c(C#N)c2ccccc12`: the half-inhibitory concentration (IC50) in experiment [1] and in experiment [2] was above 50 µM each time.

As for `CCCCCNc1nc(C)c(C#N)c2ccccc12`, the concentration for half-maximal inhibition (IC50) in experiment [1] is 8.6 µM; in experiment [2], 9.6 µM. As for `Cc1nc(NC2CCCCC2)c2ccccc2c1C#N`, the IC50 in experiment [1] and in experiment [2] was above 50 µM in each case. As for `Cc1nc(NC(C)(C)C)c2ccccc2c1C#N`, the figures for the IC50 in experiment [1] and in experiment [2] were 5.2 µM and 4.2 µM, respectively.

For the compound `Cc1nc(N)c2ccccc2c1C#N`, the values for the 50% inhibitory concentration (IC50) in experiment [1] and in experiment [2] were 34 µM and 36 µM, respectively. Regarding `CCCCOc1nc(C)c(C#N)c2ccccc12`, the concentration for half-maximal inhibition (IC50) was 36 µM in experiment [1] and 16 µM in experiment [2]. Take `CCCCNc1nc(C)c(C(N)=O)c2ccccc12`: in experiment [1], the 50% inhibitory concentration (IC50) is above 50 µM.

With `Cc1nc(NCc2ccccc2)c2ccccc2c1C#N`, the half-maximal inhibitory concentration (IC50) in experiment [1] and in experiment [2] was above 50 µM each time. `CCCCNc1nc(CC)c(C#N)c2ccccc12`: the half-inhibitory concentration (IC50) was 25 µM in experiment [1] and 22 µM in experiment [2].

The record behind these values is ChEMBL document CHEMBL3792329, “Exploration of 3-methylisoquinoline-4-carbonitriles as protein kinase A inhibitors of Plasmodium falciparum” (Bioorg Med Chem, 2016).
